We go through three compounds from patent US20140094402A1, “Lantibiotic NAI-802, Pharmaceutically Acceptable Salts, Compositions and Uses Thereof” ([…] PHARMACEUTICALS, INC., priority 2011, published 2014).

Test [1] deals with Peptstreptococcus asaccharolyticus. The conditions noted are these: 48 h.
Test [2] deals with Streptococcus pyogenes.
The test system of test [3] is Escherichia coli.
Test [4] concerns Bacteroides fragilis ATCC 25285. The conditions noted are these: ATCC 25285, 48 h.
For test [5], the system named is Staphylococcus aureus Met-S ATCC6538P. The conditions noted are these: ATCC6538.
Test [6] has as its system Candida albicans ATCC 90028. The conditions noted are these: ATCC 90028, 48 h.
In test [7] the test system is Streptococcus pneumoniae.
Test [8] concerns Clostridium butyricum and Clostridium perfrigens.
In test [9] the test system is Enterococcus faecalis VanA.
Test [10] relates to Enterococcus faecium VanA.
The subject of test [11] is Staphylococcus aureus Met-R.
In test [12] the test system is Clostridium butyricum. The conditions noted are these: 48 h.
Test [13] deals with Moraxella catharralis.
For test [14], the system named is Clostridium difficile.
Test [15] concerns Enterococcus faecium VanS.
Test [16] deals with Gram positive bacteria, including staphylococci and streptococci. The test can be described thus: In vitro antibacterial activity, summary statement. In kind it is cell-based.
Test [17] concerns Enterococcus faecalis VanS.
In test [18] the test system is Clostridium perfrigens.
Test [19] relates to Escherichia coli. The test can be described thus: microbe, parasite or virus in culture. The conditions noted are these: read-out: Minimal Inhibitory Concentration.
Test [20] relates to Candida albicans ATCC 90028. The test can be described thus: microbe, parasite or virus in culture. The conditions noted are these: ATCC90028, 48 h, read-out: Minimal Inhibitory Concentration.
For test [21], the system named is Enterococcus faecalis VanS. Nature of the test: microbe, parasite or virus in culture.
Test [22] relates to Peptstreptococcus asaccharolyticus. The test can be described thus: organism not typed. The conditions noted are these: 48 h, read-out: Minimal Inhibitory Concentration.
The test system of test [23] is Bacteroides fragilis ATCC 25285. The test can be described thus: microbe, parasite or virus in culture. The conditions noted are these: ATCC25285, 48 h, read-out: Minimal Inhibitory Concentration.
Test [24] deals with Clostridium difficile. The test can be described thus: microbe, parasite or virus in culture. The conditions noted are these: Clostridioides difficile, 48 h.
Test [25] relates to Enterococcus faecalis VanA. The test can be described thus: microbe, parasite or virus in culture. The conditions noted are these: read-out: Minimal Inhibitory Concentration.
For test [26], the system named is Enterococcus faecium VanA. The test can be described thus: microbe, parasite or virus in culture. The conditions noted are these: read-out: Minimal Inhibitory Concentration.
The subject of test [27] is Enterococcus faecium VanS. Nature of the test: microbe, parasite or virus in culture.
For test [28], the system named is Streptococcus pneumoniae. Nature of the test: microbe, parasite or virus in culture. The conditions noted are these: read-out: Minimal Inhibitory Concentration.
Test [29] has as its system Streptococcus pyogenes. The test can be described thus: microbe, parasite or virus in culture. The conditions noted are these: read-out: Minimal Inhibitory Concentration.
The subject of test [30] is Staphylococcus aureus Met-R. Nature of the test: microbe, parasite or virus in culture. The conditions noted are these: read-out: Minimal Inhibitory Concentration.
Test [31] has as its system Moraxella catharralis. The test can be described thus: microbe, parasite or virus in culture. The conditions noted are these: read-out: Minimal Inhibitory Concentration.
In test [32] the test system is Clostridium butyricum. Nature of the test: microbe, parasite or virus in culture. The conditions noted are these: 48 h, read-out: Minimal Inhibitory Concentration.
In test [33] the test system is Clostridium perfrigens. The test can be described thus: microbe, parasite or virus in culture. The conditions noted are these: 48 h, read-out: Minimal Inhibitory Concentration.
The subject of test [34] is Staphylococcus aureus Met-S ATCC19636. The test can be described thus: microbe, parasite or virus in culture.
The subject of test [35] is Staphylococcus aureus Met-S ATCC6538P. The test can be described thus: microbe, parasite or virus in culture.
The mark [36] stands for this setting: range over codes 4013, 1365, 4015.

Values after ≈ are worked out from the molar mass of the structure shown. Where two headings read alike, the source gives them in different places.

Take `CC[C@H](C)[C@@H]1NC(=O)C2NC(=O)[C@H](CC(C)C)NC(=O)C(NC(=O)C3CSCC(NC(=O)[C@H](C)N)C(=O)N[C@@H](CO)C(=O)NCC(=O)N[C@@H](Cc4c[nH]c5ccccc45)C(=O)N[C@@H](C(C)C)C(=O)N3)C(C)SCC(NC(=O)[C@H](CCC(=O)O)NC1=O)C(=O)NCC(=O)NC1C(=O)N[C@@H](C(C)C)C(=O)N[C@@H]([C@@H](C)CC)C(=O)NC(CSC2C)C(=O)N[C@@H](C)C(=O)NC(C(=O)N[C@@H](CCCNC(=N)N)C(=O)NCCN)C[S+]([O-])C1C` (some centres unmarked) [NAI-802 monoamide with ethylendiamine]: the “Minimal Inhibitory Concentration” value in test [1] is listed as 0.5 mg/L; in the test with Streptococcus pyogenes [2] (code 49, Todd Hewitt broth), “≦0.125 mg/L”; in the test on Escherichia coli [3], above 128 mg/L; in test [4], above 128 mg/L; in test [5], 4 mg/L; in test [6] it was above 128 mg/L. Also, the “Minimal Inhibitory Concentration” value in the test on Streptococcus pneumoniae [7] came to 2 mg/L; in test [9] it was 32 mg/L; in [10], 16 mg/L; in test [11], 8 mg/L; in the test on Clostridium butyricum [12], 1 mg/L; in the test with Moraxella catharralis [13], 32 mg/L. The “Minimal Inhibitory Concentration” value was “≦0.125 mg/L” with Clostridium difficile [14] (code 4013, anaerobic, 48 hours); 32 mg/L in test [15]; 32 mg/L in test [17]. For the same compound, the “Minimal Inhibitory Concentration, range” value in test [8] was 1 to 8 mg/L; in the test with Clostridium difficile [14] (setting [36]), “≦0.125-1 mg/L”. Besides, the “antibacterial activity compared to native NAI-802” value in [16] (against certain organisms) is reported as “more antibacterial active”.
Take `CC[C@H](C)[C@@H]1NC(=O)C2NC(=O)[C@H](CC(C)C)NC(=O)C(NC(=O)C3CSCC(NC(=O)[C@H](C)N)C(=O)N[C@@H](CO)C(=O)NCC(=O)N[C@@H](Cc4c[nH]c5ccccc45)C(=O)N[C@@H](C(C)C)C(=O)N3)C(C)SCC(NC(=O)[C@H](CCC(=O)O)NC1=O)C(=O)NCC(=O)NC1C(=O)N[C@@H](C(C)C)C(=O)N[C@@H]([C@@H](C)CC)C(=O)NC(CSC2C)C(=O)N[C@@H](C)C(=O)NC(C(=O)N[C@@H](CCCNC(=N)N)C(=O)O)C[S+]([O-])C1C` (some centres unmarked) [NAI-802]: the “Minimal Inhibitory Concentration” value was 1 mg/L in [1]; 2 mg/L in the test with Clostridium perfrigens [18] (48 h); 0.5 mg/L with Streptococcus pyogenes [2]; above 128 mg/L in the test with Escherichia coli [3]; above 128 mg/L in test [4]; above 128 mg/L in [6]. For the same compound, the “Minimal Inhibitory Concentration” value with Streptococcus pneumoniae [7] was determined as 8 mg/L; in test [9], 128 mg/L; in [10], 128 mg/L; in test [11], 32 mg/L; with Clostridium butyricum [12], 0.25 mg/L; in the test with Moraxella catharralis [13], 64 mg/L. For the same compound, the “Minimal Inhibitory Concentration” value was above 128 mg/L in [15] and 128 mg/L in [17]. For the same compound, the “Minimal Inhibitory Concentration, range” value (in test [8]; in the test on Clostridium difficile [14]) was 0.25 to 2 mg/L in each case. Further, the “antibacterial activity against Gram positive bacteria” value in test [16] (including staphylococci and streptococci) is reported as “antibacterial activity against Gram positive bacteria”.
With `CN[C@H](CC(C)C)C(=O)N[C@H]1C(=O)N[C@@H](CC(N)=O)C(=O)N[C@H]2C(=O)N[C@H]3C(=O)N[C@H](C(=O)N[C@H](C(=O)O)c4cc(O)cc(O)c4-c4cc3ccc4O)[C@H](O)c3ccc(c(Cl)c3)Oc3cc2cc(c3O[C@@H]2O[C@H](CO)[C@@H](O)[C@H](O)[C@H]2O[C@H]2C[C@](C)(N)[C@H](O)[C@H](C)O2)Oc2ccc(cc2Cl)[C@H]1O` [VA, vancomycin], the MIC with Escherichia coli [19] is above 128 µg/mL; in test [20], above 128 µg/mL; in test [21] (read-out: Minimal Inhibitory Concentration, code 559) it was 1 µg/mL (≈ 0.69 µM); in [21] (read-out: Minimal Inhibitory Concentration, code 559, +30% bovine serum), 2 µg/mL (≈ 1.38 µM); in test [22], 0.5 µg/mL (≈ 0.345 µM); in test [23], 32 µg/mL (≈ 22.1 µM). Moreover, the MIC is 0.5 µg/mL (≈ 0.345 µM) with Clostridium difficile [24] (read-out: Minimal Inhibitory Concentration, code 1365, anaerobic); 0.25 µg/mL (≈ 0.173 µM) in the test on Clostridium difficile [24] (read-out: Minimal Inhibitory Concentration, code 4013, anaerobic); 0.25 µg/mL (≈ 0.173 µM) with Clostridium difficile [24] (read-out: Minimal Inhibitory Concentration, code 4015, anaerobic); above 128 µg/mL in test [25]; above 128 µg/mL in [26]; 2 µg/mL (≈ 1.38 µM) in [27] (read-out: Minimal Inhibitory Concentration, code 568). The MIC in test [27] (read-out: Minimal Inhibitory Concentration, code 568, +30% bovine serum) is 4 µg/mL (≈ 2.76 µM); in the test with Streptococcus pneumoniae [28], 0.5 µg/mL (≈ 0.345 µM); in the test with Streptococcus pyogenes [29] it was 0.25 µg/mL (≈ 0.173 µM); in [30] it was 0.5 µg/mL (≈ 0.345 µM); in the test with Moraxella catharralis [31], above 128 µg/mL; with Clostridium butyricum [32], 1 µg/mL (≈ 0.69 µM). Also, the MIC in the test on Clostridium perfrigens [33] stood at 1 µg/mL (≈ 0.69 µM); in test [34] (ATCC19636, read-out: Minimal Inhibitory Concentration, code 819, +30% bovine serum) it was 1 µg/mL (≈ 0.69 µM); in test [34] (ATCC19636, read-out: Minimal Inhibitory Concentration, code 819, CAMHB) it was 0.5 µg/mL (≈ 0.345 µM); in test [35] (read-out: Minimal Inhibitory Concentration, code 100, +30% bovine serum) it was 1 µg/mL (≈ 0.69 µM); in test [35] (read-out: Minimal Inhibitory Concentration, code 100, CAMHB) it was 0.25 µg/mL (≈ 0.173 µM). The “Minimal Inhibitory Concentration” value in the test with Clostridium perfrigens [18] (code 3607, anaerobic, 48 hours) was 1 mg/L; with Moraxella catharralis [13] (code 3294), above 128 mg/L. In addition, the “Minimal Inhibitory Concentration, range” value is 1 mg/L in test [8] and 0.25 to 0.5 mg/L in the test with Clostridium difficile [14] (setting [36]).
